Results published in patent US7919488B2, “Therapeutic compounds” (Pfizer Inc., priority 2006, dated 2011).

Experiments:
Type in all cases: biochemical
[1] = biological target: T1, recombinant CYP3A4-b5 enzyme (Baculosomes®) (Homo sapiens, UniProt P08684); experiment: Kiapp against recombinant CYP3A4 enzyme (Baculosomes), BFC substrate; settings: recombinant CYP3A4-b5 (Invitrogen), 5 uM BFC, 200 uM NADPH, pre-incubation at least 30 minutes, pH 7.0, room temperature
T1 construct: purchased Invitrogen (Carlsbad, Calif.)
T1 sequence (P08684 whole entry): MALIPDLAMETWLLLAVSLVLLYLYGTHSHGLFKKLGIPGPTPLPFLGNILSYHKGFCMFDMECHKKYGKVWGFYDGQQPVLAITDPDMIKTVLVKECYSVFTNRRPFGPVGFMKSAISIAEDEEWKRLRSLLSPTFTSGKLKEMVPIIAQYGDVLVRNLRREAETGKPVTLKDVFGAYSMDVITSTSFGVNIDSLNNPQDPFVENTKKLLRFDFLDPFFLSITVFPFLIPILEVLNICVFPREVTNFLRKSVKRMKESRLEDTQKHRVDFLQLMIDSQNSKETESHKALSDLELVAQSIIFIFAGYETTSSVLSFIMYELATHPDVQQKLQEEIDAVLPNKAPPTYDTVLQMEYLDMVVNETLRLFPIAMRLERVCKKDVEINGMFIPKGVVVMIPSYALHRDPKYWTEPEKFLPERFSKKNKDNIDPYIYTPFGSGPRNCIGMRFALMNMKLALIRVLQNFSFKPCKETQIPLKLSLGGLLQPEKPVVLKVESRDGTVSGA
Method: 1. Determination of Compound Kiapp
A determination of the Kiapp of the compounds of the invention against recombinant CYP3A4 enzyme was performed as follows. The assay was performed in a 100 mM sodium phosphate buffer pH 7.0, 5 mM TCEP and containing 2% dimethylformamide (final concentration) upon addition of substrate and inhibitor. A typical reaction for the determination of Kiapp values was carried at room temperature in a solid black Costar u-bottom 96-well polypropylene plate. […] When pre-incubation was completed (˜30 min), the reaction was initiated by adding NADPH (200 uM, final concentration), and 7-benzyloxy-4-(trifluoromethyl)-coumarin (BFC) (5 uM, final concentration). The oxidation of the coumarin substrate was recorded by a 96-well plate reader POLARstar (BMG LABTECH, Offenburg, Germany).
The initial reaction velocities were measured during the first 5 min of the reaction when the release of the fluorescent product is linear with time, in the absence and in the presence of various concentrations of inhibitors.
The fluorescent substrate BFC was purchased from Sigma (St Louis, Mo.). Two commercial sources of recombinant enzymes were used in this study: recombinant CYP3A4-b5 enzyme (Baculosomes®) was purchased from Invitrogen (Carlsbad, Calif.) and the recombinant CYP3A4+b5 enzyme (Supersomes®) was purchased from BD Biosciences (Woburn, Mass.).

CYP3A4 [2] = biological target: T2, CYP3A4 (Homo sapiens, UniProt P08684); experiment: IC50 against CYP3A4 by inhibition of testosterone metabolism in human liver microsomes; settings: 0.1 mg/mL human liver microsomes, 25 μM testosterone, 1 mM NADPH, 6-β-OH-testosterone production, eight minutes; read-out: IC50, μM (HLM, testosterone)
T2 construct: 0.1 mg/mL human liver microsomes; from tissue; host or cells: human liver microsomes
T2 sequence (P08684 whole entry): as above
Method: 2. Determination of IC50 Against CYP3A4 by Measurement of Inhibition of Testosterone Metabolism
This assay was performed using a standard 96 well plate design. […] Quantitation of metabolite peak area ratio against an internal standard is determined by LC-MS/MS analysis. The production of 6-β-OH-testosterone from testosterone metabolism is determined after incubation for eight minutes by comparison to a standard curve generated for the metabolite
(§1) Samples were analyzed in the MRM mode using a Sciex API 3000 mass spectrometer (Applied Biosystems, Foster City, Calif.) with a Paradigm MS4 binary pump (Michrom BioResources Inc., Auburn, Calif.) and a LEAP CTC PAL autosampler (LEAP Technologies, Carrboro, N.C.). A Phenomenex Synergi, 4μ, Polar-RP, 10×2.0 mm column (Phenomenex, Torrance, Calif.) was used for separation with a mobile phase composition of: 0.1% formic acid in water (A) and: 0.1% formic acid in methanol (B). The following gradient was used: […]
(§2) The sample injection volume was 10 μL and flow was split post-column with 0.4 mL/min going to the mass spectrometer. Analysis was performed using the following API 3000 mass spectrometer settings: […]

CYP3A4 [3] = biological target: T2, CYP3A4; experiment: IC50 against CYP3A4 by inhibition of midazolam metabolism in human liver microsomes; settings: 0.1 mg/mL human liver microsomes, 2 μM midazolam, 1 mM NADPH, 1-hydroxymidazolam production, eight minutes; read-out: IC50, μM (HLM, midazolam)
Method: 3. Determination of IC50 Against CYP3A4 by Measurement of Inhibition of Midazolam Metabolism
This assay was performed using a standard 96 well plate design. […] The incubation substrate mix contains 2 μM midazolam, 0.1 mg/mL human liver microsomes, 1 mM NADPH, and potassium phosphate buffer (100 mM, pH 7.4). Quantitation of metabolite peak area ratio against internal standard is determined by LC-MS/MS analysis. The production of 1-hydroxymidazolam from midazolam metabolism is determined after incubation for eight minutes by comparison to a standard curve generated for the metabolite.
as §1, §2

Structure (SMILES)	Ki [1]	IC50 (CYP3A4 [2])	IC50 (CYP3A4 [3])
CCC(=O)N(C)C1CCN(C(=O)Cn2nc(-c3ccncc3)cc2Cc2ccc(F)cc2)CC1 [Example 10, N-(1-{[5-(4-fluorobenzyl)-3-pyridin-4-yl-1H-pyrazol-1-yl]acetyl}piperidin-4-yl)-N-methylpropanamide]	0.0297 µM	0.033 µM	0.013 µM
CC(C)NC1CCN(C(=O)Cn2nc(-c3ccncc3)cc2Cc2ccc(F)cc2)CC1 [Example 9, 1-{[5-(4-fluorobenzyl)-3-pyridin-4-yl-1H-pyrazol-1-yl]acetyl}-N-isopropylpiperidin-4-amine]	0.202 µM	0.056 µM	
CC(Cc1cnccn1)NC(=O)Cn1nc(-c2ccncc2)cc1Cc1ccc(F)cc1 (centres unmarked) [Example 82, 2-[5-(4-fluorobenzyl)-3-pyridin-4-yl-1H-pyrazol-1-yl]-N-(1-methyl-2-pyrazin-2-ylethyl)acetamide]	0.109 µM	0.025 µM	0.023 µM
NC(=O)c1noc(Cn2nc(-c3ccncc3)cc2Cc2ccc(F)cc2)n1 [Example 69, 5-{[5-(4-fluorobenzyl)-3-pyridin-4-yl-1H-pyrazol-1-yl]methyl}-1,2,4-oxadiazole-3-carboxamide]	0.18 µM	0.0203 µM	0.0555 µM
OCCn1nc(-c2ccncc2)cc1Cc1ccc(F)cc1 [Example 29, 2-[5-(4-fluorobenzyl)-3-pyridin-4-yl-1H-pyrazol-1-yl]ethanol]	0.159 µM	0.054 µM	
O=C(Cn1nc(-c2ccncc2)cc1Cc1ccc(F)cc1)N[C@H]1CC[C@H](O)CC1 [Example 96, 2-[5-(4-fluorobenzyl)-3-pyridin-4-yl-1H-pyrazol-1-yl]-N-(trans-4-hydroxycyclohexyl)-acetamide]	0.0227 µM	< 0.0225 µM	< 0.013 µM
CCOC(=O)N(C)C1CCN(C(=O)Cn2nc(-c3ccncc3)cc2Cc2ccc(F)cc2)CC1 [Example 113]	0.00676 µM	0.011 µM	0.009 µM
CC(C)NC(=O)Cn1nc(-c2ccncc2)cc1Cc1ccc(F)cc1 [Example 58, 2-[5-(4-fluorobenzyl)-3-pyridin-4-yl-1H-pyrazol-1-yl]-N-isopropylacetamide]	0.103 µM	0.027 µM	0.043 µM
C[C@H](CO)NC(=O)Cn1nc(-c2ccncc2)cc1Cc1ccc(F)cc1 [Example 94, 2-[5-(4-fluorobenzyl)-3-pyridin-4-yl-1H-pyrazol-1-yl]-N-[(1R)-2-hydroxy-1-methylethyl]acetamide]	0.112 µM	0.022 µM	
O=C(Cn1nc(-c2ccncc2)cc1Cc1ccc(F)cc1)N1CCNCC1 [Example 62, 1-{[5-(4-fluorobenzyl)-3-pyridin-4-yl-1H-pyrazol-1-yl]acetyl}piperazine]	0.604 µM	0.111 µM	0.047 µM
CC(C)NC(=O)Cn1nc(-c2c[nH]cn2)cc1Cc1ccc(F)cc1 [Example 111, 2-[5-(4-fluorobenzyl)-3-(1H-imidazol-4-yl)-1H-pyrazol-1-yl]-N-isopropylacetamide]	0.838 µM	0.714 µM	0.223 µM
CC(C)OC(=O)NC1CCN(C(=O)Cn2nc(-c3ccncc3)cc2Cc2ccc(F)cc2)CC1 [Example 116, isopropyl (1-{[5-(4-fluorobenzyl)-3-pyridin-4-yl-1H-pyrazol-1-yl]acetyl}piperidin-4-yl)carbamate]	0.0141 µM	0.008 µM	< 0.003 µM
CCC(=O)N1CC(n2nc(-c3ccncc3)cc2Cc2ccc(F)cc2)C1 [Example 22, 1-(3-(5-(4-fluorobenzyl)-3-(pyridin-4-yl)-1H-pyrazol-1-yl)azetidin-1-yl)propan-1-one]	0.166 µM	0.072 µM	0.084 µM
CNC(=O)N(C)C1CCN(C(=O)Cn2nc(-c3ccncc3)cc2Cc2ccc(F)cc2)CC1 [Example 117, 1-(1-{[5-(4-fluorobenzyl)-3-pyridin-4-yl-1H-pyrazol-1-yl]acetyl}piperidin-4-yl)-1,3-dimethylurea]	0.0702 µM	0.018 µM	0.011 µM
O=C(Cn1nc(-c2ccncc2)cc1Cc1ccc(F)cc1)N1CCCC(O)C1 (centres unmarked) [Example 76, 1-{[5-(4-fluorobenzyl)-3-pyridin-4-yl-1H-pyrazol-1-yl]acetyl}piperidin-3-ol]	0.117 µM	0.0333 µM	< 0.0184 µM
CN(C(=O)C1CC1)C1CCN(C(=O)Cn2nc(-c3ccncc3)cc2Cc2ccc(F)cc2)CC1 [Example 13, N-(1-{[5-(4-fluorobenzyl)-3-pyridin-4-yl-1H-pyrazol-1-yl]acetyl}piperidin-4-yl)-N-methylcyclopropanecarboxamide]	0.0111 µM	0.009 µM	< 0.00346 µM
CC(C)C(=O)NC1CCN(C(=O)Cn2nc(-c3ccncc3)cc2Cc2ccc(F)cc2)CC1 [Example 104, N-(1-{[5-(4-fluorobenzyl)-3-pyridin-4-yl-1H-pyrazol-1-yl]acetyl}piperidin-4-yl)-2-methylpropanamide]	0.106 µM	0.046 µM	
O=C(Cn1nc(-c2ccncc2)cc1Cc1ccc(F)cc1)NCCc1cnccn1 [Example 78, 2-[5-(4-fluorobenzyl)-3-pyridin-4-yl-1H-pyrazol-1-yl]-N-(2-pyrazin-2-ylethyl)acetamide]	0.0834 µM	0.04 µM	
CCNC(=O)NC1CCN(C(=O)Cn2nc(-c3ccncc3)cc2Cc2ccc(F)cc2)CC1 [Example 106, 1-ethyl-3-(1-{[5-(4-fluorobenzyl)-3-pyridin-4-yl-1H-pyrazol-1-yl]acetyl}piperidin-4-yl)urea]	0.0782 µM	0.023 µM	
O=C(Cn1nc(-c2c[nH]cn2)cc1Cc1ccc(F)cc1)N1CCN(c2ncccn2)CC1 [Example 108, 2-(4-{[5-(4-fluorobenzyl)-3-(1H-imidazol-4-yl)-1H-pyrazol-1-yl]acetyl}piperazin-1-yl)pyrimidine]	0.0881 µM	0.241 µM	
CCS(=O)(=O)N(C)C1CCN(C(=O)Cn2nc(-c3ccncc3)cc2Cc2ccc(F)cc2)CC1 [Example 110, N-(1-{[5-(4-fluorobenzyl)-3-pyridin-4-yl-1H-pyrazol-1-yl]acetyl}piperidin-4-yl)-N-methylethane-sulfonamide]	0.0158 µM	0.016 µM	
O=C(NC1CCN(C(=O)Cn2nc(-c3ccncc3)cc2Cc2ccc(F)cc2)CC1)C1CCC1 [Example 18, N-(1-{2-[5-(4-fluorobenzyl)-3-pyridin-4-yl-1H-pyrazol-1-yl]acetyl}piperidin-4-yl)cyclobutanecarboxamide]	0.0706 µM	0.018 µM	
CNC(=O)NC1CCN(C(=O)Cn2nc(-c3ccncc3)cc2Cc2ccc(F)cc2)CC1 [Example 107, 1-(1-{[5-(4-fluorobenzyl)-3-pyridin-4-yl-1H-pyrazol-1-yl]acetyl}piperidin-4-yl)-3-methylurea]	0.165 µM	0.029 µM	
COC(=O)Cn1nc(-c2ccncc2)cc1Cc1ccc(F)cc1 [Example 2, methyl [5-(4-fluorobenzyl)-3-pyridin-4-yl-1H-pyrazol-1-yl]acetate]	0.13 µM	0.956 µM	
CC(=O)N(C)C1CCN(C(=O)Cn2nc(-c3ccncc3)cc2Cc2ccc(F)cc2)CC1 [Example 109, N-(1-{[5-(4-fluorobenzyl)-3-pyridin-4-yl-1H-pyrazol-1-yl]acetyl}piperidin-4-yl)-N-methylacetamide]	0.0643 µM	0.036 µM	
COC(=O)NC1CCN(C(=O)Cn2nc(-c3ccncc3)cc2Cc2ccc(F)cc2)CC1 [Example 105, methyl (1-{[5-(4-fluorobenzyl)-3-pyridin-4-yl-1H-pyrazol-1-yl]acetyl}piperidin-4-yl)carbamate]	0.055 µM	0.036 µM	
